According to patent US8921321B2, “Therapeutic strategies for prevention and treatment of alzheimer's disease” (Isis Innovation Ltd., priority 2001, dated 2014):

Columns and labels:
[1] = system: SH-SY5Y human neuroblastoma cells; experiment: MTT proliferation and cell survival assay; type: cell-based; conditions: drug alone: rapamycin 100 ng/ml, doxorubicin 1 μM, dexrazoxane 200 μM; vs control cultures; FIG. 1a
Procedure: (§1) SH-SY5Y cells were treated with three candidate agents: rapamycin (Rapa) at 100 ng/ml, doxorubicin (Doxo) at 1 μM and Dexrazoxane (DexRaz) at 200 μM and then tested one day (d1) and two days (d2) after treatment for the following 7 parameters, which are indicative of cell cycle defects and “AD-type” pathology:
(§2) In order to evaluate the effect of drug pre-treatment is protecting against the effects of oxidative stress cells were subjected to oxidative stress (by treatment with 120 μM H2O2) in the absence of drug treatment and after treatment with rapamycin or dexrazoxane, and then tested for the same parameters. Results are shown in FIGS. 1-7, panel b (FIG. 1b, FIG. 2b, FIG. 3b, FIG. 4b, FIG. 5b, FIG. 6b, FIG. 7b).
Finally, cells were treated with doxorubicin after treatment with rapamycin or dexrazoxane and then tested for the same parameters, to evaluate the effects of combined treatment. […]
Cell survival and proliferation was assessed by MTT proliferation and cell survival assay, performed according to the manufacturers recommendations (Chemicon International, Ltd., Hampshire, UK) in the final 4 hours of the 24 hours period. The results of the assay were evaluated using an Opsys MR ELISA plate reader (Dynex Technologies, Middlesex, UK) at 570 nm with a reference wavelength of 630 nm.

[2] = system: SH-SY5Y human neuroblastoma cells; experiment: Apoptosis by flow cytometry (sub-G1 DNA content); type: cell-based; conditions: drug alone: rapamycin 100 ng/ml, doxorubicin 1 μM, dexrazoxane 200 μM, FIG. 2a
Procedure: as §1, §2
(§3) Finally, cells were treated with doxorubicin after treatment with rapamycin or dexrazoxane and then tested for the same parameters, to evaluate the effects of combined treatment. Results are shown in FIGS. 1-7, panel c (FIG. 1c, FIG. 2c, FIG. 3c, FIG. 4c, FIG. 5c, FIG. 6c, FIG. 7c).
(§4) SH-SY5Y human neuroblastoma cells were cultured in Dulbecco's modified Eagle's medium (DMEM)/F12 supplemented with 10% fetal calf serum (FCS, PAA Laboratories, Austria), 2 mM L-glutamine, 100 IU/ml penicillin and 100 μg/ml streptomycin (Gibco) in a humidified incubator at 37° C. and 5% CO2.
(§5) After 24 h incubation the culture medium was replaced by DMEM/F12 with 10% FCS containing various concentrations of drug. The cells were incubated for another 24 or 48 hours.
(§6) The cell cultures were repeated in identical conditions in order to analyze cell cycle kinetics by flow cytometry and to study protein expression.
(§7) The cultures prepared for flow cytometry were harvested after a short incubation with Trypsin EDTA (Sigma) in PBS. Cells were fixed in 70% ice-cold alcohol. Prior to staining with propidium iodide (PI) the samples were washed twice in PBS containing Triton-X at 0.1%. On flow cytometry the ratio of G1 and G2 cells was measured. Cells with sub-G1 DNA content were regarded as the apoptotic fraction.

[3] = system: SH-SY5Y human neuroblastoma cells; experiment: Relative lengthening of the G1 phase of the cell cycle by flow cytometry; type: cell-based; conditions: drug alone, FIG. 3a
Procedure: as §1, §2
Finally, cells were treated with doxorubicin after treatment with rapamycin or dexrazoxane and then tested for the same parameters, to evaluate the effects of combined treatment. Results are shown in FIGS. 1-7, panel c (FIG. 1c, FIG. 2c, FIG. 3c, FIG. 4c, FIG. 5c, FIG. 6c, FIG. 7c). […]
The cultures prepared for flow cytometry were harvested after a short incubation with Trypsin EDTA (Sigma) in PBS. […] On flow cytometry the ratio of G1 and G2 cells was measured. […]

[4] = system: SH-SY5Y human neuroblastoma cells; experiment: Relative lengthening of the G2 phase of the cell cycle by flow cytometry; type: cell-based
Procedure: as §1, §2, §3, §4, §5, §6, §7

[5] = system: amyloid precursor protein (APP); experiment: ELISA of APP expression in SH-SY5Y cell lysates; type: cell-based, human; conditions: for Expression of APP: drug alone, FIG. 5a
Procedure: as §1, §2, §3, §4, §5, §6
(§8) The cultures prepared for protein expression assays were harvested after a short wash with cold PBS by scraping. The collected cells were lysed in 150 μl of lysis buffer containing 50 mM Tris-HCl (pH 7.4), 100 mM NaCl, 1 mM EDTA, 0.5% (v/v) Nonidet P-40, 50 mM NaF, 0.2 mM Na3VO4, 20 μg/ml phenylmethylsulfonyl fluoride, and 5 μg/ml leupeptin, and incubated on ice for 30 min. The cell lysate was centrifuged at 14,000 g for 20 min at 4° C. to remove insoluble pellets. Protein concentration was determined by the Bradford assay. ELISA assays were performed using a panel of antibodies. Secondary antibodies (anti rabbit or anti mouse as appropriate) conjugated to horseradish peroxidase were used.

[6] = system: AD-type hyperphosphorylated tau protein; experiment: ELISA of AD-type hyperphosphorylated tau (AT8) in SH-SY5Y cell lysates; type: cell-based, human; conditions: for Expression of AD-type hyperphosphorylated tau: drug alone, FIG. 6a
Procedure: as §1, §2, §3, §4, §5, §6, §8

[7] = system: AD-type paired helical filament (PHF) tau protein; experiment: ELISA of AD-type PHF tau (Tau2) in SH-SY5Y cell lysates; type: cell-based, human; conditions: for Expression of AD-type PHF tau: drug alone, FIG. 7a
Procedure: as §1, §2, §3, §4, §5, §6, §8

[8] = system: AD-related proteins; experiment: ELISA of AD-related proteins overall (APP, phospho tau, PHF tau) in SH-SY5Y cell lysates; type: cell-based, human
Procedure: as §1, §2, §3, §4, §5, §6
The cultures prepared for protein expression assays were harvested after a short wash with cold PBS by scraping. The collected cells were lysed in 150 μl of lysis buffer containing 50 mM Tris-HCl (pH 7.4), 100 mM NaCl, 1 mM EDTA, 0.5% (v/v) Nonidet P-40, 50 mM NaF, 0.2 mM Na3VO4, 20 μg/ml phenylmethylsulfonyl fluoride, and 5 μg/ml leupeptin, and incubated on ice for 30 min. […] Protein concentration was determined by the Bradford assay. […]

[9] = drug alone, after 1 day (day 2), FIG. 4a

C[C@@H](CN1CC(=O)NC(=O)C1)N1CC(=O)NC(=O)C1 [dexrazoxane, Dexrazoxane]
Cell survival and proliferation (cell numbers) [1]: reduced cell numbers only after 2 days of treatment | Apoptosis [2]: did not seem to protect cells against apoptotic cell death as efficiently as rapamycin did | Apoptosis ([2]; listed as Dexrazoxane): did not confer protection against cell death on its own | Length of the G1 phase of the cell cycle [3]: acceleration of the G1 phase of the cell cycle | Length of the G2 phase of the cell cycle [4, 9]: massive G2 lengthening on day 2 | Length of the G2 phase of the cell cycle ([4]; drug alone, day one, FIG. 4a): little change in G2 time on day one | Length of the G2 phase of the cell cycle ([4]; drug pre-treatment followed by doxorubicin, FIG. 4c): increased the G2 lengthening effect of doxorubicin | Expression of APP ([5]; day two): by day two all three proteins were reduced in the cell lysates | Expression of APP ([5]; first day): increased the expression of all three AD-related proteins on the first day | APP production ([5]; drug pre-treatment followed by doxorubicin, FIG. 5c): reduction of the APP and PHF-tau production | Expression of AD-type hyperphosphorylated tau ([6]; day two): by day two all three proteins were reduced in the cell lysates | Expression of AD-type hyperphosphorylated tau ([6]; first day): increased the expression of all three AD-related proteins on the first day | Phospho-tau production ([6]; drug pre-treatment followed by doxorubicin, FIG. 6c): did not significantly effect the phospho-tau production | Expression of AD-type PHF tau ([7]; day two): by day two all three proteins were reduced in the cell lysates | Expression of AD-type PHF tau ([7]; first day): increased the expression of all three AD-related proteins on the first day | PHF tau formation ([7]; drug pre-treatment followed by doxorubicin, FIG. 7c): reduction of the APP and PHF-tau production | AD-related protein expression (overall) ([8]; drug alone): effectively reduced AD-related protein expression after two days in culture | AD-related protein expression (overall) ([8]; drug pre-treatment followed by doxorubicin, summary statement): protective effects against AD-related protein expression became more robust

COc1cccc2c1C(=O)c1c(O)c3c(c(O)c1C2=O)C[C@@](O)(C(=O)CO)C[C@@H]3O[C@H]1C[C@H](N)[C@H](O)[C@H](C)O1 [doxorubicin]
Cell survival and proliferation (cell numbers) [1]: reduced cell numbers | Apoptosis [2]: seems to be protective against apoptotic cell death | Apoptosis ([2]; listed as Doxorubicin): appeared to be protective against apoptosis | Length of the G1 phase of the cell cycle ([3]; after 1 day (day 2)): effect on G1 was reversed after 1 day | Length of the G2 phase of the cell cycle ([4]; drug alone, FIG. 4a): lengthening of the G2 phase | Length of the G2 phase of the cell cycle ([4]; drug alone, FIG. 4a, listed as Doxorubicin): lengthening of the G2 phase of the cell cycle | Length of the G2 phase of the cell cycle [4, 9]: G2 inhibitory effect diminished | Expression of APP [5]: elevated expression of APP | Expression of AD-type hyperphosphorylated tau [6]: reduction of phospho-tau | Expression of AD-type PHF tau [7]: elevated expression | AD-related protein expression (overall) ([8]; drug alone): elevation of AD-related protein expression
